Test results reported in patent US5498618A, “4-amino-N-(4-methyl-4-piperidinyl)-2-methoxybenzamides for treating smooth muscle contraction disorders” (Janssen Pharmaceutica N.V., priority 1993, dated 1996).
pIC50: −log10 of the molar value.

Tests used:
dopamine-D2 receptor = biological target: T1, dopamine-D2 receptor (Rattus norvegicus, UniProt P61169); assay: dopamine-D2 receptor binding, [3H]haloperidol displacement; conditions: read-out: IC50 (inhibition of [3H]-ligand binding) (converted)
T1 construct: Cell membrane fractions, prepared from tissue homogenates or cells; from tissue
T1 sequence (P61169 whole entry): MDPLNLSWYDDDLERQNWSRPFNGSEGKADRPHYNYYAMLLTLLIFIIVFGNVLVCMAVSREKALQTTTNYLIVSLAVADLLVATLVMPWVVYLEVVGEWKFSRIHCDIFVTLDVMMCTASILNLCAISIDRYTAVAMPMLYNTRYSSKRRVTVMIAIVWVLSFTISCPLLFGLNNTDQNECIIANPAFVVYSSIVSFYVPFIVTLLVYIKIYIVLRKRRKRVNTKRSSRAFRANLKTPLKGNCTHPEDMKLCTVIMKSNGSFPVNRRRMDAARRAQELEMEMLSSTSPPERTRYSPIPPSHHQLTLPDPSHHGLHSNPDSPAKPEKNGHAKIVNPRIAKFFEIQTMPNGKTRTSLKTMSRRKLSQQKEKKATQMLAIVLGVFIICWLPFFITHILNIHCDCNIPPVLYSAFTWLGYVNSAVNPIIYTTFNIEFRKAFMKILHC
Protocol: (§1) Cell membrane fractions, prepared from tissue homogenates or cells, were incubated with a radioactive [^3 H]-labelled substance (described hereinafter as the [^3 H]-ligand) known to bind specifically to a particular receptor, thus labeling this receptor. The [^3 H]-ligand used for each receptor site is mentioned in Table 1, as are the references wherein the experimental conditions of these tests are described.
(§2) After the incubation, the labelled membranes were harvested on glass fibre filters and rinsed twice with 5 ml of a cold buffer solution to remove non-bound [^3 H]-ligands. Subsequently the glass fibre filters, with the harvested membranes, were placed in plastic mini-vials and 2.0 ml of Ultima Gold™ scintillation cocktail was added. Vials were vigorously shaken and kept at 4° C. for 24 h. Thereafter radioactivity was counted in a liquid scintillation spectrometer. Said radioactivity is proportional to the membrane labelling by the [^3 H]-ligand.
(§3) Specific membrane labelling by the [^3 H]-ligand was distinguished from the non-specific membrane labelling by selectively inhibiting the labelling of the receptor site by another substance (unlabelled) known to compete with the [^3 H]-ligand for binding to said receptor site. The remaining non-specific labelling was substracted from all assays concerning said receptor site.
(§4) During the incubation the test compounds were able to compete with the [^3 H]-ligand for binding with the receptor. Subsequently the membranes were harvested and the radioactivity was measured as described above.
(§5) A compound having a high binding affinity is capable of displacing the [^3 H]-ligand from binding to the receptor, and consequently the radioactivity of the harvested membranes will be diminished. […] The values presented in table 1 are IC50 -values, i.e. the molar concentrations at which the test compound was able to inhibit 50% of the [^3 H]-ligand-binding
(§6) In the table "5HT2, 5HT1A, 5HT1B, 5HT1D, 5HT1C, 5HT3 " all refer to different types of serotonin receptor sites; "α2 " refers to the α2 -adrenergic receptor site; "H1 " refers to the histamine-H1 receptor site; and "D2 " refers to the dopamine-D2 -receptor site.

5HT2 serotonin receptor = biological target: T2, 5HT2 serotonin receptor (Rattus norvegicus, UniProt P14842); assay: 5HT2 receptor binding, [3H]ketanserin displacement; conditions: read-out: IC50 (inhibition of [3H]-ligand binding) (converted)
T2 construct: Cell membrane fractions, prepared from tissue homogenates or cells; from tissue
T2 sequence (P14842 whole entry): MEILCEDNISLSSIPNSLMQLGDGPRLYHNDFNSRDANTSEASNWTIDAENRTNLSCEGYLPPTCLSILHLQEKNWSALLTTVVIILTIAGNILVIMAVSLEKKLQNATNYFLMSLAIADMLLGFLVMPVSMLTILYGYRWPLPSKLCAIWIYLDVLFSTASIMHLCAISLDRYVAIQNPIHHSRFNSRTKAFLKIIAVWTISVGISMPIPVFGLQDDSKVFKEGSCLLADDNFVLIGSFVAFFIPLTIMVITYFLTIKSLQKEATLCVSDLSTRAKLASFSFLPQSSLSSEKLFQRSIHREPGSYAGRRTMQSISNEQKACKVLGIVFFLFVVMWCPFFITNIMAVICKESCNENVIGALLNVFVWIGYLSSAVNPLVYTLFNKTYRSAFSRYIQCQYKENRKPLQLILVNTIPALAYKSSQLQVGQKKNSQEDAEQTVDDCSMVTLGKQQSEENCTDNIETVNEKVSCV
Protocol: as §1, §2, §3, §4, §5, §6

histamine-H1 receptor = biological target: T3, histamine-H1 receptor (Cavia porcellus, UniProt P31389); assay: histamine-H1 receptor binding, [3H]pyrilamine displacement; conditions: read-out: IC50 (inhibition of [3H]-ligand binding) (converted)
T3 construct: Cell membrane fractions, prepared from tissue homogenates or cells; from tissue
T3 sequence (P31389 whole entry): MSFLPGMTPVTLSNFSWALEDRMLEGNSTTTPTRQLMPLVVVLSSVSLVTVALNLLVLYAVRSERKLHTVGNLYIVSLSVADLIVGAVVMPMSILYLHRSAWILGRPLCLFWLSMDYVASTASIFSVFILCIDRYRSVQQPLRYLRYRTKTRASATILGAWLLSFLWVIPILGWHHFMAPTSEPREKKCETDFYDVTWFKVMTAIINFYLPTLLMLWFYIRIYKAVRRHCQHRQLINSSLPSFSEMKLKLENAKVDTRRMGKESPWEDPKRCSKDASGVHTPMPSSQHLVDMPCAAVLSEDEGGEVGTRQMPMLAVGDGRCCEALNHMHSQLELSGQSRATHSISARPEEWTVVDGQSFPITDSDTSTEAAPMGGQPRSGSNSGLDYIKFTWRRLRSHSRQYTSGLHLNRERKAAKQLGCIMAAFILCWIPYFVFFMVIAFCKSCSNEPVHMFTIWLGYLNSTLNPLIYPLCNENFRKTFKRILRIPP
Protocol: as §1, §2, §3, §4, §5, §6
(h) Chang et al., Eur. J. Pharmacol., 48, 463-464, 1978; Laduron et al.,

5HT1A serotonin receptor = biological target: T4, 5HT1A serotonin receptor (Homo sapiens, UniProt P08908); assay: 5HT1A receptor binding, [3H]8OHDPAT displacement; conditions: read-out: IC50 (inhibition of [3H]-ligand binding) (converted)
T4 construct: expressed in transfected cells
T4 sequence (P08908 1-422): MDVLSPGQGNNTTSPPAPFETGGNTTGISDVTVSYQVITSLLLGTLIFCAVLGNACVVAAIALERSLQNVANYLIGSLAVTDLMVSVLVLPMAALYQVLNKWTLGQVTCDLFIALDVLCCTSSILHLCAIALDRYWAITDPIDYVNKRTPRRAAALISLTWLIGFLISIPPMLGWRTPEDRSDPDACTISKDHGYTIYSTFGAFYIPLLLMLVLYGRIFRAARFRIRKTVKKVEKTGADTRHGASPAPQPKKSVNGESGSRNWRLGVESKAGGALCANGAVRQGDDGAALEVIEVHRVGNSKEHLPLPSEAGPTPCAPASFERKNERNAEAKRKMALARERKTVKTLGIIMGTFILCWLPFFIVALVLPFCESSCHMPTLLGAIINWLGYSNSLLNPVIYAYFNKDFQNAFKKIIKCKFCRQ
Protocol: as §1, §2, §3, §4, §5, §6

5HT1B serotonin receptor = biological target: T5, 5HT1B serotonin receptor (Rattus norvegicus, UniProt P28564); assay: 5HT1B receptor binding, [3H]serotonin displacement; conditions: read-out: IC50 (inhibition of [3H]-ligand binding) (converted)
T5 construct: Cell membrane fractions, prepared from tissue homogenates or cells; from tissue
T5 sequence (P28564 whole entry): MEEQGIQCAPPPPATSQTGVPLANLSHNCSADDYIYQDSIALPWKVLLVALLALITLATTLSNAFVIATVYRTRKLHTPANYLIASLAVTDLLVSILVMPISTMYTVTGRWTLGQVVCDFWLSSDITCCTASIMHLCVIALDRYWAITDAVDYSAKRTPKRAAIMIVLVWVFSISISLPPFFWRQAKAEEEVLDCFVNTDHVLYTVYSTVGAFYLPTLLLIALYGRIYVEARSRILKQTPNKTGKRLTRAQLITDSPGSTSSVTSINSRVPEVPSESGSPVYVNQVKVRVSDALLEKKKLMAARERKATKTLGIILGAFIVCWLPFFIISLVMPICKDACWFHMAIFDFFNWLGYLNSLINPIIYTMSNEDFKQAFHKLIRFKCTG
Protocol: as §1, §2, §3, §4, §5, §6

5HT3 serotonin receptor = biological target: T6, 5HT3 serotonin receptor (Mus musculus, UniProt P23979); assay: 5HT3 receptor binding, [3H]GR65630 displacement; conditions: read-out: IC50 (inhibition of [3H]-ligand binding) (converted)
T6 construct: Cell membrane fractions, prepared from tissue homogenates or cells; endogenous in cells
T6 sequence (P23979 24-489): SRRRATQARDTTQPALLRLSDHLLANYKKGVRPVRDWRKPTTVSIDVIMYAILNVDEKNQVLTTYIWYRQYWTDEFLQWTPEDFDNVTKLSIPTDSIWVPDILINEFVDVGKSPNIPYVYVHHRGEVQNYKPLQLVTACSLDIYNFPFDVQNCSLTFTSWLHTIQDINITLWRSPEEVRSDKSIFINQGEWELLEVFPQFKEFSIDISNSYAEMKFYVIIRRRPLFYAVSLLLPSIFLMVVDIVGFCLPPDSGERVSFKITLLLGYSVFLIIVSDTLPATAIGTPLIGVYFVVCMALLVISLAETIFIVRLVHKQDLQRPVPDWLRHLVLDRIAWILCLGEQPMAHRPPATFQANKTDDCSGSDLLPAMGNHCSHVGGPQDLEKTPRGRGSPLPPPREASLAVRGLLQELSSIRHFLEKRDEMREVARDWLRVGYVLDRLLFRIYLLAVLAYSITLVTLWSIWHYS
Protocol: as §1, §2, §3, §4, §5, §6
(f) Hoyer & Neijt, Eur. J. Pharmacol., 143, 191, 1987;

[1] = system: serotonin-induced contraction of caudal artery of the rat; assay: Antagonistic activity on the effect of serotonin on the caudal artery of the rat; format: cell-based; conditions: 5 min; rat caudal artery strips; serotonin 40 ng/ml; 5 minutes after adding the drug; read-out: ED50 (minimal concentration which reduces the amplitude of the contractions by at least 50% of its normal value)
Protocol: Antagonistic activity on the effect of serotonin on the caudal artery of the rat.
Caudal arteries from the fasted male rats (210-235 g) were used in the test. Two helical strips having a length of 5-6 cm and a width of 2 mm were obtained from each artery and mounted vertically in a 100 ml organ bath containing an oxygenated Krebs-Henseleit solution. Submaximal contractions of the arterial strips were produced by adding single doses of serotonin (40 ng/ml) to the organ bath for 2 minutes with each time an interval of 10 minutes. The amplitude of the contractions was measured before and 5 minutes after adding the drug. After washing out, the agonist was added again three times in order to see whether the contraction was restored and normalized. […] The ED50 -values are the minimal concentrations of the concerned drugs which reduce the amplitude of the contractions by at least 50% of its normal value.

SMILES | IC50 (dopamine-D2 receptor) [nM] | IC50 (5HT2 serotonin receptor) [nM] | IC50 (histamine-H1 receptor) [nM] | IC50 (5HT1A serotonin receptor) [nM] | IC50 (5HT1B serotonin receptor) [nM] | IC50 (5HT3 serotonin receptor) [nM] | pIC50 [1]
COc1cc(N)c(I)cc1C(=O)NC1(C)CCN(CCCOc2ccc(F)cc2)CC1 [Compound 1, 4-amino-N-[1-[3-(4-fluorophenoxy)propyl]-4-methyl-4-piperidinyl]-5-iodo-2-methoxybenzamide] | 27.5 | 0.603 | 6460 | 457 | 8910 | 4170 | 9.57
COc1cc(N)ccc1C(=O)NC1(C)CCN(CCCOc2ccc(F)cc2)CC1 [Compound 5, 4-amino-N-[1-[3-(4-fluorophenoxy)propyl]-4-methyl-4-piperidinyl]-2-methoxybenzamide] | 85.1 | 0.178 | 3720 | 2240 | > 10000 | > 10000 | 9.67
COc1cc(N=[N+]=[N-])c(I)cc1C(=O)NC1(C)CCN(CCCOc2ccc(F)cc2)CC1 [Compound 7, 4-azido-N-[1-[3-(4-fluorophenoxy)propyl]-4-methyl-4-piperidinyl]-5-iodo-2-methoxybenzamude hemihydrate] | 66.1 | 7.41 | 7940 | 89.1 | 3240 | 10000 | 
COc1cc(N)c(Cl)cc1C(=O)NC1(C)CCN(CCCOc2ccc(F)cc2)CC1 [Compound 2, 4-amino-5-chloro-N-[1-[3-(4-fluorophenoxy)propyl]-4-methyl-4-piperidinyl]-2-methoxybenzamide] | 29.5 | 0.251 | 4570 | 661 | 6610 | 1700 | 9.82
COc1cc(N=[N+]=[N-])c(Br)cc1C(=O)NC1(C)CCN(CCCOc2ccc(F)cc2)CC1 [Compound 8, 4-azido-5-bromo-N-[1-[3-(4-fluorophenoxy)propyl]-4-methyl-4-piperidinyl]-2-methoxybenzamide] | 63.1 | 3.55 | 8510 | 219 | 3310 | 8320 | 
COc1cc(N)c(Br)cc1C(=O)NC1(C)CCN(CCCOc2ccc(F)cc2)CC1 [Compound 3, 4-amino-5-bromo-N-[1-[3-(4-fluorophenoxy)propyl]-4-methyl-4-piperidinyl]-2-methoxybenzamide] | 47.9 | 0.661 | 10000 | 407 | 6610 | 1440 | 
COc1cc(N)c(Cl)cc1C(=O)NC1(C)CCN(CCCOc2ccc(F)cc2Br)CC1 [Compound 4, 4-amino-N-[1-[3-(2-bromo-4-fluorophenoxy)propyl]-4-methyl-4-piperidinyl]-5-chloro-2-methoxybenzamide] | 22.9 | 0.631 | 2880 | 417 | 10000 | 191 | 9.92
